Experimental data from patent publication US8816151B2, “Stat5b transgenic mice and methods of use thereof” (Georgia Health Sciences University Research Institute, Inc., priority 2012, dated 2014).

Assays:
[1] = tested on: CD8+ lymphoma cells derived from F1.Stat5bTg mice; experiment: In vivo hollow fiber assay, lymphoma cells from F1.Stat5bTg mice; set-up: species or system mouse; conditions: hollow fiber assay (data not shown)
phosphorylated STAT5 = experiment: STAT5 phosphorylation (p-STAT5) by Western blotting and FACS in treated NOD.Stat5bTg mice; type: in vivo, mouse; conditions: for p-STAT5 expression in thymocytes: NOD.Stat5bTg mice, treatment for 2 weeks, Western analysis and FACS; for STAT5 activation (pSTAT5) in peripheral blood CD8+ T cells: 10-week old NOD.Stat5bTg mice treated for 2 weeks, FACS
Experimental: (§1) AG490 (30 mg/kg/day) and STAT5 inhibitor CNH (40 mg/kg/day) purchased from Calbiochem (La Jolla, Calif.) were injected intraperitoneally into F1 and NOD.Stat5b transgenic lines. Xanthohumol and apigenin (>98% purity by HPLC) purchased from Sigma (St. Louis, Mo.) were used in the chemoprevention experiments. Xanthohumol (100 mg/kg/day) and Apigenin (200 mg/kg/day) were injected alone or in combination intraperitoneally into NOD.Stat5b^Tg mice.
(§2) Single-cell suspensions from thymus, spleen, lymph nodes and hollow fibers were stained and analyzed using a fluorescence-activated cell sorting (FACS) flow cytometer (BD Biosciences) with CELLQuest 3.3 software (Becton Dickinson, San Jose, Calif.). All antibodies were purchased from BD PharMingen (San Diego, Calif.) except anti-CD150-PE from Biolegend (San Diego, Calif.). For intracellular staining, cells were fixed and permeablized using Cytofix/Cytoperm solution (BD PharMingen), followed by P-Stat5 (pY694)-APC staining.
Whole cell extracts were prepared from thymus or spleens using RIPA lysis buffer (Santa Cruz) supplemented with protease inhibitors. Western blot analysis was carried out as reported (29) by probing the blots with rabbit anti-phospho-Stat5 (Tyr694), rabbit anti-Stat5 or mouse anti-β-actin (Santa Cruz biotechnology), washed, and incubated with a horseradish peroxidase-conjugated anti-rabbit or anti-mouse antibody (Santa Cruz biotechnology). Immunopositive bands were photographed (Versadoc; Bio-Rad) after blots were developed with an enhanced chemiluminescent substrate (Pierce Chemical Co).

CD8+ thymocytes = experiment: Number of CD8+ thymocytes in treated NOD.Stat5bTg mice; type: in vivo, mouse; conditions: treatment for 2 weeks
Experimental: AG490 (30 mg/kg/day) and STAT5 inhibitor CNH (40 mg/kg/day) purchased from Calbiochem (La Jolla, Calif.) were injected intraperitoneally into F1 and NOD.Stat5b transgenic lines. Xanthohumol and apigenin (>98% purity by HPLC) purchased from Sigma (St. Louis, Mo.) were used in the chemoprevention experiments. Xanthohumol (100 mg/kg/day) and Apigenin (200 mg/kg/day) were injected alone or in combination intraperitoneally into NOD.Stat5b^Tg mice. Single-cell suspensions from thymus, spleen, lymph nodes and hollow fibers were stained and analyzed using a fluorescence-activated cell sorting (FACS) flow cytometer (BD Biosciences) with CELLQuest 3.3 software (Becton Dickinson, San Jose, Calif.). All antibodies were purchased from BD PharMingen (San Diego, Calif.) except anti-CD150-PE from Biolegend (San Diego, Calif.). For intracellular staining, cells were fixed and permeablized using Cytofix/Cytoperm solution (BD PharMingen), followed by P-Stat5 (pY694)-APC staining.

[2] = tested on: Lymphoma cells from NOD.Stat5bTg mice; experiment: In vivo hollow fiber assay, lymphoma cells from NOD.Stat5bTg mice; set-up: species or system mouse; conditions: lymphoma cells from NOD.Stat5bTg mice in hollow fibers in nude mice, 4 days of daily treatment
Source text: Cellmax implant membranes were purchased from Spectrum Laboratories Inc. (Rancho Dominguez, Calif.). Lymphoma cells from NOD.Stat5b^Tg mice were harvested, suspended in cold phosphate buffered saline (PBS) and introduced into a 15 cm length of hollow fiber. The fiber was heat-sealed at 20 mm intervals, and each segment was separated using a pair of scissors. Intraperitoneal implantation in methoxyflurane anesthetized 6 week-old nude mice were accomplished via a dorsal incision which allowed passage of the hollow fiber into abdomen. The abdominal wall is closed using skin staples. After 3 days of transplantation, mice with implants were treated daily with either AG490 (30 mg/kg/day) or CNH (40 mg/kg/day). Single cell suspensions were obtained after 4 days of treatment by cutting off the sealed ends of the fibers. Cells were then washed twice with PBS and further processed for flow cytometry.
as §2, with “For intracellular staining, cells were fixed and permeablized using Cytofix/Cytoperm solution (BD PharMingen), followed by P-Stat5 (pY694)-APC staining.” left out

CD150 = CD150 expression by FACS in treated NOD.Stat5bTg mice; type: in vivo, mouse; conditions: for CD150 expression on CD8+ thymocytes: NOD.Stat5bTg mice, treatment for 2 weeks, intraperitoneal; for CD150 expression in peripheral blood CD8+ T cells: 10-week old NOD.Stat5bTg mice treated for 2 weeks
Experimental: as §1, §2

[3] = tested on: Ckmt2, Dgat2, Myl4, Csrp3, Nppa, Sln and Myh6; experiment: Real-time RT-PCR of genes up-regulated in NOD.Stat5bTg mice; type: in vivo, mouse; conditions: normalized with GAPDH, versus vehicle-treated NOD.Stat5bTg mice
Experimental: as §1
RNA was isolated from thymus using the miRACLE™ total RNA isolation kit (Jinfiniti Biosciences) or RNeasy® kit (QIAGEN) and used for microarray and real-time RT-PCR analyses. The Illumina's MouseRef-8 v2.0 Expression BeadChip was used for transcriptional analysis. This BeadChip targets approximately 25,600 well-annotated RefSeq transcripts, over 19,100 unique genes, and enables the interrogation of eight samples in parallel. Probe preparation and hybridization were carried out according to Manufacture's recommendation. The microarray data are MIAME compliant and have been deposited in NCBI Gene Expression Omnibus and are accessible through GEO Series accession number GSE31526.
Real-time PCR was carried out in 96-well PCR plates using the ABI Prism 7900HT real-time PCR instrument (Applied Biosystems, Roche). […] The fluorescent signal was measured at the end of the annealing/elongation step in each cycle.

[4] = tested on: lymphoma in NOD.Stat5bTg mice; experiment: Lymphomagenesis in NOD.Stat5bTg mice; type: in vivo, mouse; conditions: 5 week-old NOD.Stat5bTg mice, three cycles of 3-week on and 3-week off
Source text: In several experiments, mice were monitored for tumors through physical examination. Mice showing sufficient signs of pain and suffering including thymic and cervical lymphoid enlargement were euthanized for a complete necropsy. Final diagnosis of disease was established by clinical, pathologic and FACS analysis. Images of H&E staining were visualized with an Axiophot I microscope (Carl Zeiss) equipped with a Plan Neofluar 40X objective (FIG. 1c). Images were captured with an Axiocam color CDD camera, and treated on a computer with Axiovision software (Carl Zeiss).
as §1
Since AG490 and STAT5b inhibitor CNH can inhibit STAT5 function and CD150 expression, they could delay lymphomagenesis. […] STAT5 inhibitors are potentially very effective in treating cancers with fewer unpleasant side effects. To test this possibility, CNH (40 mg/kg/day) was used to treat 5 week-old NOD.Stat5^Tg mice with three cycles of 3-week on and 3-week off.

Row | Structure (SMILES) | survival of CD8+ lymphoma cells [1] | p-STAT5 expression in thymocytes (phosphorylated STAT5) | number of CD8+ thymocytes (CD8+ thymocytes) | apoptosis of lymphoma cells (Annexin V) [2] | CD150 expression on CD8+ thymocytes (CD150) | expression of genes up-regulated in NOD.Stat5bTg mice (Ckmt2, Dgat2, Myl4, Csrp3, Nppa, Sln and Myh6) in thymocytes [3] | STAT5 activation (pSTAT5) in peripheral blood CD8+ T cells (phosphorylated STAT5) | CD150 expression in peripheral blood CD8+ T cells (CD150) | age before which treated mice were free of lymphomas [4] | percentage of treated mice that developed lymphoma by 30 weeks of age [4]
1 | N#C/C(=C/c1ccc(O)c(O)c1)C(=O)NCc1ccccc1 [AG490] | did not alter | dramatic decrease | greatly decreased | significantly increased | inhibited | did not significantly down-regulate |  |  |  | 
2 | O=c1cc(-c2ccc(O)cc2)oc2cc(O)cc(O)c12 [Apigenin] |  |  |  |  |  |  | significantly inhibit | significantly inhibit |  | 
3 | O=C(NN=Cc1coc2ccccc2c1=O)c1cccnc1 [CNH, chromone-based nicotinyl hydrazone] | did not alter | did not decrease | significantly decreased | significantly increased | significantly decreased | did not significantly down-regulate |  |  | ≥ 27 weeks | 17%
4 | COc1cc(O)c(CC=C(C)C)c(O)c1C(=O)/C=C/c1ccc(O)cc1 [Xanthohumol] |  |  |  |  |  |  | significantly inhibit | significantly inhibit |  | 
